One compound from patent US20240050491A1 (priority 2021, published 2024) can be followed below.

The subject of one experiment is Salmonella. Description: Decontamination of Salmonella contaminated alfalfa seeds by Ca-hypochlorite. Type of experiment: in vivo, Salmonella enterica serovar Typhimurium. Particulars: 20,000 ppm. The method, then: FIGS. 18A-B are graphs illustrating the influence of decontamination by Ca-hypochlorite, of Salmonella contaminated alfalfa seeds, on the concentration of Salmonella. The seeds were contaminated with Salmonella by dipping in 10^2-[…] CFU/ml. Decontamination was performed with 20,000 ppm Ca-hypochlorite. The number of Salmonella on the seeds (CFU/g seeds) was detected immediately after the contamination (A), and in the sprouts (B) after 3 days of sprouting (CFU/g sprouts). The results are representing the average and standard error of 3 independent experiments in duplicates. When bacteria were not detected, enrichment of the samples was performed in BPW. (*) Growth after enrichment. (−) No growth.
(§1) Seed sterilization by Ca-hypochlorite: To assess the ability of Ca-hypochlorite to inactivate the Salmonella enterica serovar Typhimurium (STm) strain SL1344 on the seeds, alfalfa seeds were pre-contaminated with increasing concentrations of STm cells. […] After 4 days the alfalfa sprouts were extracted and the STm concentration in the extract was analyzed. Salmonella Typhimurium SL1344 survival in sprouts in the presence or absence of Bacillus BX-77 was analyzed after disinfection by Ca-hypochlorite of alfalfa seeds contaminated by 10^2 or 10^5 CFU of STm. […]

The test system of experiment [1] is Salmonella Typhimurium SL1344. The experiment in a line: Salmonella survival in alfalfa sprouts with BX-77 and/or Ca-hypochlorite disinfection. The experiment is classed as in vivo.
Source text: FIG. 19 is a graph illustrating Salmonella Typhimurium SL1344 survival in sprouts in the presence of BX-77 or absence of BX-77 after disinfection by Ca-hypochlorite of Salmonella contaminated seeds. Alfalfa seeds were contaminated by 10^2 or 10^5 CFU of Salmonella, dried, decontaminated by Ca-hypochlorite and seeded in the presence or absence of BX-77. Salmonella infected seeds were used as controls in the absence or the presence of BX-77. The experiment was repeated twice and each set included 5 cups.
as §1, with “cells. Breifly, seeds (1 g) 15 were contaminated with the desired number of bacteria by adding 20 μL of STm suspended in SDDW and mixing by a sterile plastic spreader and then the seeds were dried at room-temp for 30 minutes.” for “cells.”

As for `[Ca+2].[O-]Cl.[O-]Cl` [Ca-hypochlorite, calcium hypochlorite], the efficiency of decontamination result is “not efficient” in the experiment with Salmonella (higher Salmonella concentrations, 3 day sprouts); “Salmonella was not detected even after sprouting” in the experiment on Salmonella (low Salmonella concentrations up to 10^3/ml, seeds and 3 day sprouts). In experiment [1] (seeds infected by 10^2 CFU of Salmonella), the “killing of Salmonella cells” value was “killed all the Salmonella cells”. In addition, the “reduction of Salmonella growth” value in experiment [1] (seeds infected by 10^5 CFU of Salmonella) amounted to 2 log CFU/g.
